Laboratory results: ChEMBL document CHEMBL1140951, “2-Acetylpyridine thiosemicarbazones are potent iron chelators and antiproliferative agents: redox activity, iron complexation and characterization of their antitumor activity” (J Med Chem, 2009)

Key:
[1] = target: Serotransferrin (Homo sapiens) (UniProt P02787); test: Induction of iron removal from 59Fe]transferrin assessed as iron release after 3 hrs relative to control; parameters: concentration or dose not given beside the values
SK-N-MC [2] = test: Induction of iron mobilization in 59Fe]transferrin labeled human SK-N-MC cells assessed as iron release at 25 uM after 3 hrs by gamma scintillation counter; type: functional
[3] = target: Serotransferrin (Homo sapiens) (UniProt P02787); test: Reduction of cellular iron uptake from 59Fe]transferrin in human SK-N-MC cells at 25 uM after 3 hrs relative to control; type: cell-based; parameters: scale not given: the % may be the effect or the level left
SK-N-MC [4] = test: cells; conditions: Homo sapiens, 72 h
Description: Antiproliferative activity against human SK-N-MC cells after 72 hrs by MTT assay

[5] = Octanol-water partition coefficient, log P of the compound; type: physicochemical
SK-N-MC [6] = test: Cytotoxicity against 59Fe]transferrin prelabeled human SK-N-MC cells assessed as cell viability at 25 uM after 3 hrs; type: cell-based

Chain of Serotransferrin (Homo sapiens) (P02787 whole entry): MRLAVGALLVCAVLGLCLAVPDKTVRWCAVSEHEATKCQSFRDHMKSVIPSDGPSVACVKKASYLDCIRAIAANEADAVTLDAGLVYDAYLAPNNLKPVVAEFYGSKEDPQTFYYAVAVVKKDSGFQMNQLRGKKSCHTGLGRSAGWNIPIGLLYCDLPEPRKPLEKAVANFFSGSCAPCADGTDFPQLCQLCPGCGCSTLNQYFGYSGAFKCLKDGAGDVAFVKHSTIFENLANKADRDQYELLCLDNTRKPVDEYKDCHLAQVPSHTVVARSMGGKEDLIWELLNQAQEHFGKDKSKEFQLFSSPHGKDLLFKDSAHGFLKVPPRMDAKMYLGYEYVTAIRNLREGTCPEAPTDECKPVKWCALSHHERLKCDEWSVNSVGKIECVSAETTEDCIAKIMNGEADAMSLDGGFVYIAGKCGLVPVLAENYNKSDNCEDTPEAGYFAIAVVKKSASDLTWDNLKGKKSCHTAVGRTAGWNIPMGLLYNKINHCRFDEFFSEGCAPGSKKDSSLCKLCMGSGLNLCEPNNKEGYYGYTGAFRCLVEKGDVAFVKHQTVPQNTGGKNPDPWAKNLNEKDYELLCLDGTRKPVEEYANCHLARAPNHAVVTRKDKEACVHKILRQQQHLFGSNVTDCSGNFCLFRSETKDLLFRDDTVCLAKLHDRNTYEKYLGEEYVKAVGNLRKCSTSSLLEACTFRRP

SMILES	Activity [1]	Activity (SK-N-MC [2])	Activity [3]	IC50 (SK-N-MC [4])	logP [5]	Activity (SK-N-MC [6])
NC(=S)N/N=C(\c1ccccc1)c1ccccn1	2%					
CC(=O)N(O)CCCCCNC(=O)CCC(=O)N(O)CCCCCNC(=O)CCC(=O)N(O)CCCCCN [DEFEROXAMINE]	14.2%	13%	83%	7350 nM		
C=CCNC(=S)N/N=C(\C)c1ccccn1	1.7%		4%	1 nM	1.76	
CN(C)C(=S)NN=C(c1ccccn1)c1ccccn1	2.9%	27%	7%			
Cc1ncc(CO)c(/C=N/NC(=O)c2ccncc2)c1O [PYRIDOXAL ISONICOTINOYL HYDRAZONE]		37%	11%			
C/C(=N\NC(N)=S)c1ccccn1	1%		4%	3530 nM	1.52	
CCNC(=S)N/N=C(\C)c1ccccn1	2.1%		4%	2 nM	1.52	
C/C(=N\NC(=S)Nc1ccccc1)c1ccccn1	0.9%	33%	35%	1 nM	2.99	Non-toxic
C/C(=N\NC(=S)N(C)C)c1ccccn1	2.7%		4%	1 nM	1.8	
CCNC(=S)N/N=C(\c1ccccc1)c1ccccn1	3.1%			3 nM		
NC(=S)NN=C(c1ccccn1)c1ccccn1	1.6%					
CNC(=S)N/N=C(\C)c1ccccn1	1.8%		4%	11 nM	2.7	
Cc1c(O)c(=O)ccn1C	20%					
O=C(N/N=C/c1c(O)ccc2ccccc12)c1ccncc1				500 nM		
